This is an account of results in patent US12509423B2, “Compound, aldehyde dehydrogenase 2 activating agent, pharmaceutical composition, and therapeutic and/or prophylactic drug” (Alchemedicine, Inc., priority 2020, dated 2025).

The target in series [1] is T1, human recombinant ALDH2 enzyme (Homo sapiens, UniProt P05091).
T1 construct: purchased BioVision Inc
T1 sequence (P05091 18-517): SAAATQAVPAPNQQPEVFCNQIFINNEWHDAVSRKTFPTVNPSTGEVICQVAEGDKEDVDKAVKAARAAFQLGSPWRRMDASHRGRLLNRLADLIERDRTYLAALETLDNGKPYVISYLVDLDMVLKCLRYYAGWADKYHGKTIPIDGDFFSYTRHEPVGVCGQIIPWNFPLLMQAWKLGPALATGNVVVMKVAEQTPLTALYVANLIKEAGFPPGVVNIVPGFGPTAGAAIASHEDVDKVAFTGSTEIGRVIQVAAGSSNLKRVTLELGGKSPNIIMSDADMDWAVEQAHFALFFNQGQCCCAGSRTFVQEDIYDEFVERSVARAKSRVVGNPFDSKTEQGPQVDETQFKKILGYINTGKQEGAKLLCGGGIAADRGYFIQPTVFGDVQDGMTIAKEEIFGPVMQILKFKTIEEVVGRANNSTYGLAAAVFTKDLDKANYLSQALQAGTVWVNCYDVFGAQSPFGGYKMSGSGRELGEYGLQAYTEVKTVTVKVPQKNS
In words: ALDH2 activation effect (acetaldehyde oxidation rate, PicoProbe Aldehyde dehydrogenase Activity Assay Kit). The class given is biochemical. As to the method:
The activation effect of each test compound on the acetaldehyde oxidation rate of ALDH2 was measured with the following method. A test was conducted by using a commercially available PicoProbe™ Aldehyde dehydrogenase Activity Assay Kit (manufactured by BioVision Inc.) with reference to an instruction attached to the product under the following conditions. To each well of a 384-well plate, the following (1) to (3) were sequentially added with a pipette: • (1) 10 μL of solution obtained by dissolving and diluting a human recombinant ALDH2 enzyme (manufactured by BioVision Inc.) with ALDH assay Buffer to reach 3-μg/mL; • (2) 10 μL of 30 μM or 90 μM test compound solution (with 3% DMSO) prepared by using ALDH assay Buffer; and • (3) 10 μL of Reaction mix composed with ratio of 8.6 μL of ALDH assay Buffer, 0.6 μL of PicoProbe, 0.3 μL of Substrate Mix, and 1.5 μL of Acetaldehyde.
Before addition of (3), incubation was performed at room temperature for 5 minutes. After addition of (3), fluorescence intensity was measured at room temperature every 2.5 minutes over a period of 180 minutes by using an EnSight (manufactured by PerkinElmer Inc.). Wavelengths of 535 nm and 587 nm were used for fluorescence intensities of excitation and -emission, respectively.

The nature of series [2]: Metabolic stability with mouse hepatic microsomes. The class given is in vitro ADME. As to the method:
Metabolic stability in mouse hepatic microsomes was evaluated with the following method.
• (1) Mouse hepatic microsomes: 20 mg/mL • (2) Test compound: 1.1 mM DMSO solution • (3) Potassium phosphate buffer solution: 66.7 mM (pH 7.4) • (4) NADPH solution: 10 mM in potassium phosphate buffer solution • (5) Quenching solution: 0.5% formic acid-acetonitrile solution with warfarin as internal standard substance 2. Method
Into a propylene tube, 971.5 μL of the potassium phosphate buffer solution and 27.5 μL of the mouse hepatic microsomes were put and suspended. Thereto, 1 μL of a test compound was added, and 180 μL was taken from this mixture and transferred into another tube. The mixture was preincubated at 37° C. for 5 minutes, and 20 μL of the NADPH solution (for the case with an incubation time of 30 minutes) or 20 μL of the potassium phosphate buffer solution (for the case with an incubation time of 0 minutes) was then added thereto. After incubation, 200 μL of the quenching solution was added to terminate the reaction. Subsequently, centrifugation was performed at 3220×g for 20 minutes, and the concentration of the unchanged form of the test compound in 200 μL of the supernatant was measured with LC-MS/MS. On the basis of the peak area obtained for the unchanged form, the residual rate (%) of the unchanged form was calculated as that for the case with an incubation time of 0 minutes was assumed as 100%.

A short description of series [3]: Metabolic stability with human hepatic microsomes. The class given is in vitro ADME. Particulars: human hepatic microsomes 0.1 mg protein/mL, 0.1 μmol/L test compound, after 30 minutes, 37° C. The method, then: The specific method is as follows.
• (1) Fifty microliter-portions were taken from 0.2 μmol/L test compound diluted with β-NADPH solution. • (2) Fifty microliters of 0.2 mg protein/mL human hepatic microsome solution was added to each (except for a sample with a reaction time of 0 minutes). • (3) Incubation was performed with shaking at 37° C. for 30 minutes (concentration in reaction sample: 0.1 μmol/L test compound, 0.1 mg protein/mL human hepatic microsome). • (4) After incubation, 400 μL of methanol was added to terminate the reaction. • (5) To the sample with a reaction time of 0 minutes, 50 μL of 0.2 mg protein/mL hepatic microsome solution was added. • (6) Each of the samples from (4) and (5) was left to stand at −20° C. for 30 minutes or longer, and then centrifuged at 4° C. and 3,000 rpm for approximately 10 minutes. • (7) The supernatant was subjected to measurement with LC/MS/MS, and, based on the peak area obtained for the unchanged form, the residual rate (%) of the unchanged form was calculated as that for the case with an incubation time of 0 minutes was assumed as 100%.

For series [4], the target named is hERG (human Ether-a-go-go Related Gene) channel (Homo sapiens, UniProt Q12809). Briefly: hERG channel inhibition effect (whole-cell patch clamp). The class given is cell-based. Particulars: 22 to 25° C. As to the method: The hERG (human Ether-a-go-go Related Gene) channel inhibition effect of each test compound was examined with the following patch clamp method.
Sequence of hERG (human Ether-a-go-go Related Gene) channel (Q12809 whole entry): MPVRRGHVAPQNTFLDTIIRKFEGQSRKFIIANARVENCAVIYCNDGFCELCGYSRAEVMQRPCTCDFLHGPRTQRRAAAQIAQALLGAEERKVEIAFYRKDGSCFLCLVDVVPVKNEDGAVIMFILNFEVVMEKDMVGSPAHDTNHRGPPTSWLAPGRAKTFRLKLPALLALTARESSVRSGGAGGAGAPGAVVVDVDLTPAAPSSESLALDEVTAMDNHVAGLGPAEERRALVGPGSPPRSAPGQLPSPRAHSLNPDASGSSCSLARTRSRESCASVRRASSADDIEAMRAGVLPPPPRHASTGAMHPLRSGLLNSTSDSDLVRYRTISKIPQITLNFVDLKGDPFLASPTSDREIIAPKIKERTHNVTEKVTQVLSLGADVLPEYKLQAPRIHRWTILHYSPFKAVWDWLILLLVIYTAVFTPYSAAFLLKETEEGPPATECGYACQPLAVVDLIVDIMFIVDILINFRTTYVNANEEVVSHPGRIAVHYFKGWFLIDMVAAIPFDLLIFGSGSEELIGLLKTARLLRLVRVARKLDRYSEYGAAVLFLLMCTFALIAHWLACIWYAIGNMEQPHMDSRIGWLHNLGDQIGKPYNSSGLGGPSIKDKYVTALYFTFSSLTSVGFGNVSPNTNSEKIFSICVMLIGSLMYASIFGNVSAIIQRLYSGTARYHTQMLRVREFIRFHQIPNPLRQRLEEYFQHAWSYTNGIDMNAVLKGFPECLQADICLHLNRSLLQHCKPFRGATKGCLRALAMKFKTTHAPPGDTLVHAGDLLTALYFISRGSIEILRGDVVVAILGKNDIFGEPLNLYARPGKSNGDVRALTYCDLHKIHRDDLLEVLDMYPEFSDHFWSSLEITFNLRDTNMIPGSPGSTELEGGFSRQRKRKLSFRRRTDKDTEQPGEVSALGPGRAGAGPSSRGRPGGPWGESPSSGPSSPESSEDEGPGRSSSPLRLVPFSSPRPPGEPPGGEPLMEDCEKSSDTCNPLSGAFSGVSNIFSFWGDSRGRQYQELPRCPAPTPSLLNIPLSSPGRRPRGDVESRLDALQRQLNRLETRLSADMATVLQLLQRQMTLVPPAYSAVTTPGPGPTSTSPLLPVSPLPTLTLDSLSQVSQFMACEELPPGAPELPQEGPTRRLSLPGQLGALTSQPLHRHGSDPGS
Under a fixed potential, an hERG current that passed through the whole cell membrane was recorded with the whole-cell patch clamp method.
To confirm the hERG current, the holding potential was set to −80 mV, and depolarizing pulses at −50 mV for 110 msec and at 20 mV for 4 sec and a subsequent repolarizing pulse at −50 mV for 2 sec were provided at a frequency of once per 15 seconds. After the stabilization of the hERG tail current obtained was confirmed, an application was initiated. The pulses were continuously provided also during the application.
The sampling frequency was set to 5 kHz, and Lowpass Filter was applied at 2 kHz. […]
hERG currents were measured by using an amplifier for patch clamping (Axopatch 200B, Molecular Devices, LLC), and electric signals obtained were recorded in a computer via recording/analysis software for patch clamping (pCLAMP 10, Molecular Devices, LLC).
The maximum tail current value was determined on the basis of the current value with the depolarizing pulse at −50 mV for 110 msec, and the change rate (suppression rate) 5 minutes after the initiation of application to the maximum tail current value before application of the test compound was calculated.

Series [5] relates to pain induced by carrageenan (mechanical allodynia). In words: Suppression effect on pain induced by carrageenan (von Frey escape score). The class given is in vivo, C57BL/6J mice. To be noted: mean ± SE. The method, then:
This experiment was carried out with reference to Science Translational Medicine 6, 251ra118 (2014). Animals used were 7-week-old male C57BL/6J mice (Charles River Laboratories Japan, Inc.). To induce mechanical allodynia to a sole part, carrageenan was subcutaneously administered to the sole of the left hind limb of each mouse. The escape response against mechanical stimulation 180 minutes after the induction was measured by using a von Frey filament with bending force (0.16 grams) to the sole surface of the left hind limb in the ascending direction. […] The commercially available statistical program SAS SYSTEM (SAS Software Release 9.1.3; SAS Institute Japan Ltd.) was used for the significance test.

Molecules are shown by their SMILES.

One may read the IC50 as the concentration at which inhibition is half-maximal. In the case of `COCc1ccc(CNC(=O)c2cc(-c3ncccc3CO)ccc2F)cc1F` [Example 1, 2-Fluoro-N-(3-fluoro-4-(methoxymethyl)benzyl)-5-(3-(hydroxymethyl)pyridin-2-yl)benzamide], the “acetaldehyde oxidation rate (rate with no test compound assumed as 100%)” value in series [1] (concentration of test compound 10 μM) came out at 196%; in series [1] (concentration of test compound 30 μM), 238%. Moreover, the “metabolic stability in mouse hepatic microsomes (in words)” value in series [2] is recorded as “confirmed to have stability”. Further, the “Residual rate (%) of unchanged form” value is on record as 90% in series [2] (mouse hepatic microsomes, after 30 minutes, 37° C., NADPH) and 90% in series [3]. The IC50 in series [4] was above 100 µM. The Pain-related total score was 10.5 ± 1.6 in series [5] (2 mg/kg s.c. three times, 180 min after induction with carrageenan); 3.0 ± 0.3 in series [5] (2 mg/kg s.c. three times, Pre (before carrageenan treatment)); 8.3 ± 1.0 in series [5] (6 mg/kg s.c. three times, 180 min after induction with carrageenan, significant difference from Vehicle group); 3.0 ± 0.3 in series [5] (6 mg/kg s.c. three times, Pre (before carrageenan treatment)); 8.6 ± 1.4 in series [5] (20 mg/kg s.c. three times, 180 min after induction with carrageenan); 3.0 ± 0.3 in series [5] (20 mg/kg s.c. three times, Pre (before carrageenan treatment)).
